# Assay results taken from ChEMBL document CHEMBL5338751, “Discovery of the First-in-Class Intestinal Restricted FXR and FABP1 Dual Modulator ZLY28 for the Treatment of Nonalcoholic Fatty Liver Disease” (J Med Chem, 2023).
# Calls of active or inactive are those of the source. The calls are words filed in the database; no cut-off is given here.
# Legend:
# [1] = target: Estrogen receptor beta (Homo sapiens, UniProt Q92731); assay: Activation of Gal-DBD and NHRLBD fused ERbeta (unknown origin) transfected in African green monkey CV-1 cells by luciferase reporter assay; type: cell-based
# Sequence of Estrogen receptor beta (Q92731 whole entry, the tested form may be a part): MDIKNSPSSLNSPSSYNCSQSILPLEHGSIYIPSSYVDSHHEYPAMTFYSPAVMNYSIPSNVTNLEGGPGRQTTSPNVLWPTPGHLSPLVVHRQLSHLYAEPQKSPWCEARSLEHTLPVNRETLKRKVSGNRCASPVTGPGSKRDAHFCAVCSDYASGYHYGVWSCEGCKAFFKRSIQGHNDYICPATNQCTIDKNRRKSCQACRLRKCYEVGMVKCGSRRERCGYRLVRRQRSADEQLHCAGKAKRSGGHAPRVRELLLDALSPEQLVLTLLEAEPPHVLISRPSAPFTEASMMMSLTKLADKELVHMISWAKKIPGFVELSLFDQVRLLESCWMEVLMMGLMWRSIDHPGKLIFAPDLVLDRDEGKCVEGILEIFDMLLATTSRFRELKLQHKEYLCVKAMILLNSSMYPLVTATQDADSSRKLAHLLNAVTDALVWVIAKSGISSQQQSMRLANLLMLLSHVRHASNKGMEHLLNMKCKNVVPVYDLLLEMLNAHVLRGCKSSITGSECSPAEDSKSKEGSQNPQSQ
# [2] = Drug concentration in C57BL/6 mouse plasma at 20 mg/kg, po administered for 5 days and measured after 1 hr post final dose by LC-MS analysis; type: ADME, organism-based; conditions: time 5 day
# [3] = target: T1, Fatty acid-binding protein, liver (Homo sapiens) (UniProt P07148); assay: Displacement of 8-anilino-1-naphthalene-sulfonic acid from FABP1 (unknown origin) at 10 uM incubated for 3 mins by fluorescence based assay relative to control
# T1 sequence (whole entry): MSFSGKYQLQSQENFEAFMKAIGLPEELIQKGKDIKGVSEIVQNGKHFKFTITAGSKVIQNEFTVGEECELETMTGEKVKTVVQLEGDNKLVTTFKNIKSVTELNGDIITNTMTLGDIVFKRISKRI
# [4] = Agonist activity at PPARbeta/delta (unknown origin) transfected in HepG2 cells incubated for 18 hrs by renilla/firefly based dual-glo luciferase assay; type: cell-based; conditions: Homo sapiens, HepG2, 18 h
# [5] = Ratio of drug level in liver to plasma in C57BL/6 mouse at 20 mg/kg, po administered for 5 days and measured after 1 hr post final dose by LC-MS analysis
# [6] = system: Mus musculus; assay: Anti-NASH activity in western diet and CCl4-induced nonalcoholic steatohepatitis C57BL/6 mouse assessed as downregulation of IL6 expression level at 20 mg/kg, po administered for 12 weeks starting from week 8 and change in dose for every 5 days by ELISA; type: functional, organism-based; conditions: time 4.0 weeks
# [7] = system: Mus musculus; assay: Antioxidant activity in western diet and CCl4-induced nonalcoholic steatohepatitis C57BL/6 mouse model assessed as increase in glutathione peroxidase level at 20 mg/kg, po administered for 12 weeks starting from week 8 and change in dose for every 5 days; type: functional, organism-based; conditions: time 4.0 weeks
# [8] = Subacute toxicity in ICR mouse assessed as changes in animal growth at 500 mg/kg/day, po administered for 14 days; type: organism-based; conditions: in vivo, 336 h, time 14 day
# [9] = target: T2, Bile acid receptor (Mus musculus) (UniProt Q60641); assay: Activation of FXR in C57BL/6 mouse ileum assessed as upregulation of SHP gene expression at 20 mg/kg, po administered for 5 days and measured after 1 hr post final dose by RT-PCR analysis; type: organism-based; conditions: filed as activator, time 5.0 day
# T2 sequence (whole entry): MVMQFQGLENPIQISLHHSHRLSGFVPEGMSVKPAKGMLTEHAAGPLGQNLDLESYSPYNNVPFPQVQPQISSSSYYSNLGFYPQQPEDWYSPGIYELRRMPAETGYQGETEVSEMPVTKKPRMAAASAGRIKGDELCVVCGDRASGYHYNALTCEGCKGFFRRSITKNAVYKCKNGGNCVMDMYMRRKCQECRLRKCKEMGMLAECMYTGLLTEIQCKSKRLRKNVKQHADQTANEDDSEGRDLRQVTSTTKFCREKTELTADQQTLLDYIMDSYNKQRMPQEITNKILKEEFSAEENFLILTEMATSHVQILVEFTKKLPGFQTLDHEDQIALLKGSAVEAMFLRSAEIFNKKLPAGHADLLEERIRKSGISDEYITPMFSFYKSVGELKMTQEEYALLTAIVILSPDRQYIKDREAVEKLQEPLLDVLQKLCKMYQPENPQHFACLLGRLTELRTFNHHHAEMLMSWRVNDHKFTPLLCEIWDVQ
# [10] = target: Progesterone receptor (Homo sapiens, UniProt P06401); assay: Activation of Gal-DBD and NHRLBD fused PR (unknown origin) transfected in African green monkey CV-1 cells by luciferase reporter assay; type: cell-based
# Sequence of Progesterone receptor (P06401 whole entry, the tested form may be a part): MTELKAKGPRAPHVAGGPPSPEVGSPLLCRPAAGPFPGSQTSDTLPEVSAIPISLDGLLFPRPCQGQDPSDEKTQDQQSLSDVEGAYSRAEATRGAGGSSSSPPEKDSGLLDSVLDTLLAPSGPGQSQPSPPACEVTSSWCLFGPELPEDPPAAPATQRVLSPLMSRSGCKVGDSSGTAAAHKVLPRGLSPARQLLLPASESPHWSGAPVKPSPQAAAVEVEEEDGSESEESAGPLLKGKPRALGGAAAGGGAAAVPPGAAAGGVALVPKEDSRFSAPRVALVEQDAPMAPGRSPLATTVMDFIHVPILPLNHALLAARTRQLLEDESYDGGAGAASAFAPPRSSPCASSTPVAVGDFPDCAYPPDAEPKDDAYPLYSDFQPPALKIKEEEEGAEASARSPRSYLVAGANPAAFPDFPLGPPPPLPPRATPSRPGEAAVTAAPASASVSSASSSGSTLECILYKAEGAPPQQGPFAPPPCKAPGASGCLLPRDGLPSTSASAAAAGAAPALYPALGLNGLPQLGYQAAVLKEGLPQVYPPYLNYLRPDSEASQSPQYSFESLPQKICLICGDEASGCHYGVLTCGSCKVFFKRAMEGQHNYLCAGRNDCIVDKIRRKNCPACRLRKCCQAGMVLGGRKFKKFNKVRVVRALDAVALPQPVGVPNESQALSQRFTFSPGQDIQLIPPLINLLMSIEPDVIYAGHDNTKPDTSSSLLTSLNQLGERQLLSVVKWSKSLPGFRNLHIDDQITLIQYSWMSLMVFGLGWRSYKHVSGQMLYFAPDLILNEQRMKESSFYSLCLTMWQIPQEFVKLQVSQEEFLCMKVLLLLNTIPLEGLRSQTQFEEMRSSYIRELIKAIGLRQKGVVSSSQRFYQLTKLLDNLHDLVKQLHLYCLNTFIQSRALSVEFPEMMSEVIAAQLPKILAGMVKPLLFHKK
# [11] = target: T3, Fatty acid-binding protein, liver (Homo sapiens, UniProt P07148); assay: Displacement of 8-anilino-1-naphthalene-sulfonic acid from FABP1 (unknown origin) incubated for 3 mins by fluorescence based assay
# T3 sequence (P07148 whole entry): T1 sequence (whole entry)
smiles,measurement,setting,value
O=C(O)C1(c2cccc(-c3ccc(OCc4c(-c5c(Cl)cccc5Cl)noc4C4CC4)cc3)c2)CC1,EC50,[1],> 10 µM
same,concentration at 120 h,[2],29 ng/mL
same,inhibition,[3],83.6%
same,EC50,[4],> 10 µM
same,Kp at 120 h,[5],5.1
same,Activity,[6],Active
same,Activity,[7],Active
same,Activity,[8],Non-Toxic
same,Activity,[9],Active
same,EC50,[10],> 10 µM
same,IC50,[11],2.7 µM
